Source: article PMC5913603, “Structure–activity relationships of strigolactones via a novel, quantitative in planta bioassay” (Journal of Experimental Botany, 2018)
Where two headings read alike, the source gives them in different places.

Assays:
[1] = system: Phelipanche aegyptiaca seeds; experiment: Germination-inducing activity on parasitic seeds; format: in vivo; settings: for Fold lower potency than rac-GR24 (germination): compared with rac-GR24
Procedure: Seeds of Phelipanche aegyptiaca were collected from field-grown tomato in the West Galilee region of Israel. The seeds were stored in glass vials in the dark at room temperature until their use in germination tests. For the preparation of test solutions, the compound to be tested was weighed out very accurately, dissolved in acetone at 10^–2 M and then diluted with sterile distilled water to the desired concentrations. All solutions were prepared just before use. Seeds were surface-sterilized and preconditioned as described by [Bhattacharya et al. (2009)]. Briefly, after exposure for 5 min to 50% (v/v) aqueous solutions of commercial bleach (2% hypochlorite), seeds were rinsed with sterile distilled water. For preconditioning, seeds were placed on glass fibre filter discs using a sterile toothpick (approximately 50 seeds per disc); the glass fibre discs were placed on two filter paper discs, wetted with sterile distilled water, and incubated at 25 °C in the dark for 6 d. The preconditioned seeds were then allowed to dry completely in a laminar flow cabinet, after which they were treated with each compound at five different concentrations: 10^–5 M, 10^–6 M, 10^–7 M, 10^–8 M, and 10^–9 M. Their germination rate was evaluated under a stereomicroscope 7 d after the beginning of the treatment. For each concentration, at least 250 seeds were scored; synthetic SL rac-GR24 was included as a positive control across the same range of concentrations, while a solution of 0.001% acetone in sterile distilled water was included as a negative control. Seeds were scored as germinated if the radicle protruded through the seed coat 1 week after treatment. Germination values were normalized to those of rac-GR24 at 10^–7 M.
Fig. 3. Germination-inducing activity on Phelipanche aegyptiaca seeds of rac-1–9 and of strigol, ST23b, EGO10, and EDOT at different concentrations, compared to rac-GR24 0.1 μM as a positive control and to acetone as a negative control. […] The x-axis indicates the range of concentrations. Data are means (±SD) of n>250 seeds. Confidence intervals at 95% are used to express errors of the means. The data for rac-1–9 are indicated by ‘D-lactams’.

[2] = Chemical stability in aqueous solutions, degradation followed by HPLC; format: physicochemical
Procedure: The compounds were first dissolved in methanol (30%) or acetonitrile (50%) and then diluted to the final concentrations with water. The time-course of degradation was monitored by HPLC using an Agilent Technologies HPLC chromatograph 1200 Series equipped with a photo-diode array (PDA) detector, a binary-gradient high-pressure pump, and an automatic sampler. The column used was a LiChroCART® 125-4 LiChrospher® 100 RP-18 (5 μm, Merck Millipore) maintained at 25 °C. The solvents were (A) water + 0.1% formic acid and (B) acetonitrile, and the flow rate was 0.8 ml min^–1. The initial mobile phase, 95% A / 5% B, was held for 3 min and then ramped linearly to 100% B at 23 min and held for 5 min before resetting to the original conditions. The sample injection volume was 10 μl. PDA detection was by absorbance in the 200–600-nm wavelength range. Peak detection was at the optimum wavelength (254 nm) and peak areas were used for quantification. Initial and subsequent measurements of peak area attributable to the tested compound were used to fit exponential half-life curves and to calculate first-order rate constants. Stability data allowed for calculation of the time in hours for half of the tested compound to be hydrolysed (t1/2).
Natural and synthetic SLs are rather sensitive to hydrolysis at pH 7 and are readily decomposed through the cleavage of the D-ring at pH 9.38 ([Vurro et al., 2016]). Therefore, differences in activity among SL analogues may be attributed to their instability in the aqueous medium. In order to address this point, the stability in aqueous solutions of the newly synthesized SL-D-lactams was tested, and compared to the (+)-GR24 standard ([Kannan and Zwanenburg, 2014]; [Halouzka et al., 2018]). Two different conditions were considered, a 30% solution of MeOH in water and a 1:1 solution of acetonitrile in water. As expected, stability in MeOH was highly compromised for all compounds, but to a greater extent for analogues showing both the Michael acceptor function (enol ether bridge) and an unprotected N in the D-lactam ring, as for rac-3, rac-4, rac-5, and rac-7 (Table 1): after a few hours 50% of the compounds were degraded. This was not surprising from a chemical point of view, as the functional group in SL-D-lactams is an aminal, which is more prone to hydrolysis than the acetal of the natural SL skeleton. […] For rac-5, the NH compound in the EGO10 family, the half-life dropped to 2 h.

[3] = aqueous acetonitrile solution in HPLC vials, pH 6.7, 1:1 acetonitrile:water, 21 °C, pH 6.7, extrapolated from plots of peak area versus time, read-out: Half-life (t1/2, h) ACN:Water, 1:1 (converted)
[4] = aqueous methanol solution in HPLC vials, pH 6.7, 30% MeOH in water, 21 °C, pH 6.7, extrapolated from plots of peak area versus time, read-out: Half-life (t1/2, h) 30% MeOH (converted)
[5] = aqueous solutions in HPLC vials, summary statement in the discussion, read-out: Half-life time (t1/2), solvent not specified / depending on the solvent

Row | Compound | Fold lower potency than rac-GR24 (germination) [1] | Concentration at which high germination activity was shown ([1]; high activity only at this concentration, germination normalized to rac-GR24 0.1 μM) | half-life at 200 μg ml^–1 [2, 3] | half-life at 200 μg ml^–1 [2, 4] | half-life at 200 μg ml^–1 [2, 5] | Germination efficiency at 1 μM ([1]; 1 μM) | Concentration at which some germination activity could still be detected ([1]; tested 10^-9 to 10^-5 M) | Germination activity at 10 μM ([1]; 10 μM)
1 | CC1=C[C@H](O/C=C2/C(=O)O[C@@H]3c4ccccc4C[C@H]23)NC1=O (racemic) [rac-3] | ~ 100 fold | 10 µM | 3.8 h | ~3 h | < 4 h | – | – | –
2 | CC1=C[C@H](O/C=C2/C(=O)O[C@H]3c4ccccc4C[C@@H]23)NC1=O (racemic) [rac-4] | ~ 10 fold | – | 4.4 h | ~3 h | – | efficiency comparable to GR24 | 1 µM | –
3 | CC1=CC(C2Cc3c(n(C)c4ccccc34)C2=O)NC1=O (racemic) [rac-9] | – | – | 2900 h | 1100 h | 1000 to 3000 h | – | – | inactive
